# Data from US10125100B2, “Kinase inhibitors” (Respivert Limited, priority 2014, dated 2018).
# Where two headings read alike, the source gives them in different places.
# How the values were obtained:
# [1] = molecular target: c-Src (Homo sapiens (Human), UniProt P12931); test: c-Src enzyme inhibition, Z-LYTE FRET; assay type: biochemical
# Summary of the method: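 Human Syk and c-Src (enzyme at 2000 or 3000 ng/mL respectively, pre-dilution) preincubated 2 hr at RT with compound at 1, 0.1, 0.01 or 0.001 μg/mL; FRET peptide added with ATP (60 μM Syk, 800 μM c-Src; solution concentrations), 1 hr. Protease development 1 hr; phosphorylation from coumarin/fluorescein emission ratio.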
# [2] = molecular target: Syk (Homo sapiens (Human), UniProt P43405); test: Syk enzyme inhibition, Z-LYTE FRET; assay type: biochemical
# Summary of the method: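 Syk or c-Src enzyme (3000 or 2000 ng/mL solutions) was preincubated 2 h at RT with compound solutions at 1, 0.1, 0.01 or 0.001 µg/mL. Z-LYTE FRET peptide (8 µM solution) and ATP (800 µM solution for c-Src, 60 µM for Syk) were then added for 1 h, followed by protease development for 1 h. Phosphorylation was read as the coumarin/fluorescein emission ratio.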
# [3] = test system: mitosis in PBMCs; test: (g) Cell mitosis assay; assay type: cell-based; details: Homo sapiens, PBMC, 5 μg/mL
# Protocol: Peripheral blood mononucleocytes (PBMCs) from healthy subjects are separated from whole blood (Quintiles, London, UK) using a density gradient (Histopaque®-1077, Sigma-Aldrich, Poole, UK). The PBMCs (3 million cells per sample) are subsequently treated with 2% PHA (phytohaemagglutinin, Sigma-Aldrich, Poole, UK) for 48 hr, followed by a 20 hr exposure to varying concentrations of test compounds. At 2 hr before collection, PBMCs are treated with demecolcine (0.1 μg/mL; Invitrogen, Paisley, UK) to arrest cells in metaphase. To observe mitotic cells, PBMCs are permeabilized and fixed by adding Intraprep (50 μL; Beckman Coulter, France), and stained with anti-phospho-histone 3 ([…]; #9701; Cell Signalling, Danvers, Mass.) and propidium iodide (1 mg/mL; Sigma-Aldrich, Poole, UK) as previously described (Muehlbauer P. A. and Schuler M. J., Mutation Research, 2003, 537:117-130). Fluorescence is observed using an ATTUNE flow cytometer (Invitrogen, Paisley, UK), gating for lymphocytes.
# [4] = test system: Jurkat cells; test: (r) Cell cytotoxicity assay; assay type: cell-based, human; details: 24 hours
# Summary of the method: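 Jurkat cells (1×10^5/well, RPMI + 10% FBS) exposed to compound at 20, 5 or 1 μg/mL final (1.0% DMSO control) for 24 h at 37° C., 5% CO2. Then stained with 7.5 μg/mL propidium iodide for 15 min. % viability = PI-negative cells by flow cytometry, normalized to DMSO.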
# [5] = molecular target: p38 MAPKα (MAPK14) (Homo sapiens (Human), UniProt Q16539); test: p38 MAPKα enzyme inhibition (Method 2), Z-LYTE FRET; assay type: biochemical
# Summary of the method: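 Enzyme (200 ng/mL solution) was preincubated 2 h at RT with compound solutions of 1, 0.1, 0.01 or 0.001 μg/mL, and inhibition was read indirectly via MAPKAP-K2 activation/phosphorylation. After a 1 h RT reaction and 1 h protease development, phosphorylation was derived from the coumarin/fluorescein emission ratio.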
# [6] = Pharmacokinetics and total colon distribution after oral administration; assay type: in vivo; details: male, C57BL/6, mouse, mice, oral 5 mg/kg, dosed compound measured
# Protocol: Studies were conducted by Sai Life Sciences (Hinjewadi, Pune, India) to investigate the systemic pharmacokinetics and total colon tissue distribution of compounds of the invention. In particular, pharmacokinetic studies were carried out in male C57BL/6 mice following a single oral administration of the compound.
# [7] = blood, read-out: Mean blood concentration
# [8] = total colon, read-out: total colon level
# Chain of c-Src (P12931 whole entry, looked up): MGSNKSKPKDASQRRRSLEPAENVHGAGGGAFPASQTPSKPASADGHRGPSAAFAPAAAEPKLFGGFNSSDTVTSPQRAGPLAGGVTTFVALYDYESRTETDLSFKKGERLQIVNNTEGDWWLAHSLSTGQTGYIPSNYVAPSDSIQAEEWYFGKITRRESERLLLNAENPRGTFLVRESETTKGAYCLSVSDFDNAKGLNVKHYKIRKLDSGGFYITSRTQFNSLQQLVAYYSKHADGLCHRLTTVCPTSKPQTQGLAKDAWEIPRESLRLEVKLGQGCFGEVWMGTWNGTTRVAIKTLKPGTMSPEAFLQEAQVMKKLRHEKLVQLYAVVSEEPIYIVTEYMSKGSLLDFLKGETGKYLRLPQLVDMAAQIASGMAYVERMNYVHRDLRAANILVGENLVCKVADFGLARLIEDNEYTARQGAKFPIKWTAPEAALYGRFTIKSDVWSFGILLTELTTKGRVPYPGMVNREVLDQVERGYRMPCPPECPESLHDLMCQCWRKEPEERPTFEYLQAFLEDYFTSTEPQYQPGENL
# Chain of p38 MAPKα (MAPK14) (Q16539 whole entry): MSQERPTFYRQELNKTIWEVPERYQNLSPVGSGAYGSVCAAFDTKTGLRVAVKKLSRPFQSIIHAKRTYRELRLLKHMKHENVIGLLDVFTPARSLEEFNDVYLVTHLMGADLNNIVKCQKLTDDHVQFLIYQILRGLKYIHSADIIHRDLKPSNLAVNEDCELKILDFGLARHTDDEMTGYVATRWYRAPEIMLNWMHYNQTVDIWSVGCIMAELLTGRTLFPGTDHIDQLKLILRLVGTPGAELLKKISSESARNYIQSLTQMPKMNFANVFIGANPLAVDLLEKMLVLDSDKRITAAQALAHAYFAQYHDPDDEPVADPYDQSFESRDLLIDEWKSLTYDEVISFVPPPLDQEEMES
SMILES,IC50 [1],IC50 [2],IC50 [5],inhibition at 5 µg/mL [3],% Viability at 1 μg/mL [4],% Viability at 5 μg/mL [4],% Viability at 20 μg/mL [4],further results
"COCCOCCOCCS(=O)(=O)c1ccc(Nc2cc(Oc3ccc(NC(=O)Nc4cc(C(C)(C)C)cc(NS(C)(=O)=O)c4OC)c4ccccc34)ccn2)cc1OC [Example 12, 1-[5-tert-Butyl-3-(methanesulfonamido)-2-methoxy-phenyl]-3-[4-[[2-[3-methoxy-4-[2-[2-(2-methoxyethoxy)ethoxy]ethylsulfonyl]anilino]-4-pyridyl]oxy]-1-naphthyl]urea]",0.209 µM,0.831 µM,0.023 µM,22.1%,74.5%,81.8%,82.9%,
"COc1cc(Nc2cc(Oc3ccc(NC(=O)Nc4cc(C(C)(C)C)cc(NS(C)(=O)=O)c4OC)c4ccccc34)ccn2)ccc1C(=O)NCCOCCOCCO [Example 16, 4-[[4-[[4-[[5-tert-Butyl-3-(methanesulfonamido)-2-methoxy-phenyl]carbamoylamino]-1-naphthyl]oxy]-2-pyridyl]amino]-N-[2-[2-(2-hydroxyethoxy)ethoxy]ethyl]-2-methoxy-benzamide]",0.022 µM,0.107 µM,0.034 µM,50.1%,90.1%,52.5%,19.1%,
"COc1cc(Nc2cc(Oc3ccc(NC(=O)Nc4cc(C(C)(C)C)cc(NS(C)(=O)=O)c4OC)c4ccccc34)ccn2)cc(OC)c1C(=O)NCCN1CCOCC1 [17(ae), 4-[[4-[[4-[[5-tert-butyl-3-(methanesulfonamido)-2-methoxy-phenyl]carbamoylamino]-1-naphthyl]oxy]-2-pyridyl]amino]-2,6-dimethoxy-N-(2-morpholinoethyl)benzamide]",0.031 µM,0.112 µM,0.01 µM,30.6%,93.1%,98.5%,92.9%,
"COc1cc(Nc2cc(Oc3ccc(NC(=O)Nc4cc(C(C)(C)C)cc(NS(C)(=O)=O)c4OC)c4ccccc34)ccn2)ccc1C(=O)NCCOCCOCCOP(=O)(O)O [Example 19, 2-(2-(2-(4-((4-((4-(3-(5-(tert-Butyl)-2-methoxy-3-(methylsulfonamido)phenyl)ureido)-naphthalen-1-yl)oxy)pyridin-2-yl)amino)-2-methoxybenzamido)ethoxy)ethoxy)ethyl dihydrogen phosphate]",,,,,105.0%,106.0%,100.9%,"concentration at 0.5 h [6, 7]: 0 ng/mL; concentration at 1 h [6, 7]: 0 ng/mL; concentration at 2 h [6, 7]: 0 ng/mL; concentration at 4 h [6, 7]: 0 ng/mL; concentration at 6 h [6, 7]: 0 ng/mL; concentration at 8 h [6, 7]: 0 ng/mL; concentration at 12 h [6, 7]: 0 ng/mL; concentration at 24 h [6, 7]: 0 ng/mL; concentration at 0.5 h [6, 8]: 0 ng/g; concentration at 1 h [6, 8]: 0 ng/g; concentration at 2 h [6, 8]: 0 ng/g; concentration at 4 h [6, 8]: 0 ng/g; concentration at 6 h [6, 8]: 0 ng/g; concentration at 8 h [6, 8]: 0 ng/g; concentration at 12 h [6, 8]: 0 ng/g; concentration at 24 h [6, 8]: 0 ng/g"

# Now from value to molecule, other results behind:
IC50 [1],IC50 [2],IC50 [5],SMILES,inhibition at 5 µg/mL [3],% Viability at 1 μg/mL [4],% Viability at 5 μg/mL [4],% Viability at 20 μg/mL [4],further results
0.021 µM,0.172 µM,0.02 µM,"COc1cc(Nc2cc(Oc3ccc(NC(=O)Nc4cc(C(C)(C)C)cc(NS(C)(=O)=O)c4OC)c4ccccc34)ccn2)ccc1C(=O)NCCN1CCCCC1 [17(p), 4-[[4-[[4-[[5-tert-butyl-3-(methanesulfonamido)-2-methoxy-phenyl]carbamoylamino]-1-naphthyl]oxy]-2-pyridyl]amino]-2-methoxy-N-[2-(1-piperidyl)ethyl]benzamide]",92%,102.1%,49.9%,1.5%,
0.043 µM,0.163 µM,0.064 µM,"C#Cc1cc(Nc2cc(Oc3ccc(NC(=O)Nc4cc(C(C)(C)C)cc(NS(C)(=O)=O)c4OC)c4ccccc34)ccn2)ccc1C(=O)NCCN1CCOCC1 [Example 15, 4-[[4-[[4-[[5-tert-Butyl-3-(methanesulfonamido)-2-methoxy-phenyl]carbamoylamino]-1-naphthyl]oxy]-2-pyridyl]amino]-2-ethynyl-N-(2-morpholinoethyl)benzamide]",62.3%,99.5%,75.0%,74.5%,
0.02 µM,0.098 µM,0.052 µM,"COc1cc(Nc2cc(Oc3ccc(NC(=O)Nc4cc(C(C)(C)C)cc(NS(C)(=O)=O)c4OC)c4ccccc34)ccn2)ccc1C(=O)NCCCN1CCOCC1 [17(b), 4-[[4-[[4-[[5-tert-butyl-3-(methanesulfonamido)-2-methoxy-phenyl]carbamoylamino]-1-naphthyl]oxy]-2-pyridyl]amino]-2-methoxy-N-(3-morpholinopropyl)benzamide]",58.9%,102.8%,93.8%,79.3%,
0.116 µM,0.389 µM,0.223 µM,"COc1cc(Nc2cc(Oc3ccc(NC(=O)Nc4cc(C(C)(C)C)cc(NS(C)(=O)=O)c4OC)c4ccccc34)ccn2)ccc1C(=O)NCCN1CCSCC1 [17(l), 4-[[4-[[4-[[5-tert-butyl-3-(methanesulfonamido)-2-methoxy-phenyl]carbamoylamino]-1-naphthyl]oxy]-2-pyridyl]amino]-2-methoxy-N-(2-thiomorpholinoethyl)benzamide]",24.9%,102.8%,102.7%,102.9%,
0.019 µM,0.092 µM,0.01 µM,"COc1cc(Nc2cc(Oc3ccc(NC(=O)Nc4cc(C(C)(C)C)cc(NS(C)(=O)=O)c4OC)c4ccccc34)ccn2)ccc1C(=O)NCCC1CCN(C)CC1 [Example 14, 4-[[4-[[4-[[5-tert-Butyl-3-(methanesulfonamido)-2-methoxy-phenyl]carbamoylamino]-1-naphthyl]oxy]-2-pyridyl]amino]-2-methoxy-N-[2-(1-methyl-4-piperidyl)ethyl]benzamide]",60.1%,101.9%,98.8%,0.7%,
0.02 µM,0.172 µM,0.02 µM,"COc1cc(Nc2cc(Oc3ccc(NC(=O)Nc4cc(C(C)(C)C)cc(NS(C)(=O)=O)c4OC)c4ccccc34)ccn2)ccc1C(=O)NCCN1CCOCC1 [Example 2, 4-((4-((4-(3-(5-(tert-Butyl)-2-methoxy-3-(methylsulfonamido)phenyl)ureido)naphthalen-1-yl)oxy)pyridin-2-yl)amino)-2-methoxy-N-(2-morpholinoethyl)benzamide]",48%,,,,
